Experimental data: PubChem BioAssay AID463204 (Broad Institute, 2010)
Activity calls are given as the source filed them.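 How the source made its calls: active means AC50 no more than ten times the top concentration tested, that is within one log above it; inconclusive means flat curve fit with activity between 30% and 70%, or invalid poor fit; inactive means AC50 beyond ten times the top tested dose.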 Residues, ends and D or L forms follow the SMILES beside them.

Tested on: S. cerevisiae Mot1-301 ts growth rescue, BacTiter-Glo ATP luminescence
Assay: growth rescue of Mot1-301 ts yeast, confirmation, SUMOylation pathway inhibitor project, whole organism, S. cerevisiae, Mot1-301 ts mutant, luminescence, dose retest (AID 463204);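 further: growth at restrictive 38.5 degrees C of Mot1-301 OY566 strain; actives raise luminescence by restoring growth of the ts mutant at high temperature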

Compound | AC50
Cc1sc2nc(N)sc2c1C | > 42 µM (inactive)
O=[N+]([O-])c1cncc([N+](=O)[O-])c1Nc1ccccc1Cl | 9.62 µM
CN(C)CCCN(Cc1ccccc1)C(=S)Nc1ccc(F)c(Cl)c1 | > 42 µM (inactive)
CCCCNS(=O)(=O)c1ccc(OC)cc1 | > 42 µM (inactive)
COC(=O)C1C(c2ccc(OC)c(OC)c2)NC(c2ccc(OC)c(OC)c2)C(C(=O)OC)S1(=O)=O (stereo unspecified) | > 42 µM (inactive)
Cc1c(C(=O)N2CCCC2)c(S(=O)(=O)Nc2cccc(Br)c2)c(C)n1C | > 42 µM (inactive)
Cc1sc2ncnc(Nc3ccccc3)c2c1C | 29.7 µM
COc1ccccc1C1NC(=O)CS1 (stereo unspecified) | > 42 µM (inactive)
C/C(=C\C(=O)N1CCc2ccccc21)C(=O)O | > 42 µM (inactive)
CC(=O)Nc1nn(C)c2nc3ccc(C)cc3cc12 | > 42 µM (inactive)
Cc1cc(-c2ccc(Cl)cc2Cl)c(C#N)c(=O)[nH]1 | > 42 µM (inactive)
CCCCn1c(N)c(N(CCOC)C(=O)c2ccc(Cl)c(S(=O)(=O)N3CCCCC3)c2)c(=O)[nH]c1=O | > 42 µM (inactive)
Cc1nc2c(-c3ccc(F)cc3)cnn2c2c1CCC2 | > 42 µM (inactive)
COc1ccccc1-n1c(O)c(/C=C2\C=Nc3ccccc32)c(=O)[nH]c1=O | > 42 µM (inactive)
NC(=O)C1CCN(C2CC(=O)N(c3ccc(F)c(Cl)c3)C2=O)CC1 (stereo unspecified) | 7.8 µM
CCOC(=O)c1nc(Nc2ccccc2CC)c2ccccc2n1 | > 42 µM (inactive)
Cc1ccc(C)c(NC(=S)NC(=O)c2cncc(Br)c2)c1 | > 42 µM (inactive)
O=C1N=C(N2CCOCC2)S/C1=C\c1cccnc1 | > 42 µM (inactive)
CS(=O)(=O)N1CCCC(C(=O)Nc2ccc(F)cc2F)C1 (stereo unspecified) | > 42 µM (inactive)
COC(=O)c1cc2c(s1)-c1ccc(OC)cc1CC2 | > 42 µM (inactive)
Cc1ccc(S(=O)(=O)NCCS(=O)(=O)N2CCN(c3ccc(F)cc3)CC2)cc1 | > 42 µM (inactive)
Cc1ccc(S(=O)(=O)NN2C(=O)c3ccccc3NC2c2ccccc2F)cc1 (stereo unspecified) | > 42 µM (inactive)
COCCNC(=O)C(=O)N/N=C(\C)CC(=O)Nc1cccc(C(F)(F)F)c1 | > 42 µM (inactive)
Cc1nnc(NC(=O)c2cccc(S(=O)(=O)N3CCCC3)c2)s1 | > 42 µM (inactive)
Cc1ccnc(NC(=O)CC(c2ccccc2)c2ccccc2)n1 | 29.8 µM
COc1cc(C(=O)Oc2cccnc2)cc(OC)c1OC | > 42 µM (inactive)

Compound | AC50
Cc1cc(O)c(/C=N/Nc2cccc(Cl)c2)c(=O)o1 | 3.95 µM
Cc1nc(N)c(Cc2ccccc2F)c(N)n1 | > 42 µM (inactive)
C=CCOc1ccccc1CN1CCCC(CCC(=O)N(C)CCc2ccccn2)C1 (stereo unspecified) | > 21 µM (inactive)
Cc1ccc(C(=O)N/C(=C\c2cccs2)C(=O)NCc2ccncc2)cc1 | > 42 µM (inactive)
O=C(c1ccco1)N1CCN(CC(=O)N2c3ccccc3CCc3ccccc32)CC1 | > 42 µM (inactive)
CCn1nccc1C(=O)Nc1nccs1 | > 42 µM (inactive)
Cc1ccccc1OCc1nc(-c2ccccc2)no1 | > 42 µM (inactive)
Clc1ccc(CSc2nnc(CN3CCOCC3)n2-c2ccccc2)cc1Cl | > 42 µM (inactive)
CC1CCCC(N2C(=O)NC(NC(=O)c3ccco3)(C(F)(F)F)C2=O)C1C (stereo unspecified) | > 42 µM (inactive)
Cc1ccc2c(c1)C(O)(CC(=O)c1cccnc1)C(=O)N2 (stereo unspecified) | > 42 µM (inactive)
Cc1cc(C)cc(C(=O)Oc2cc(C)[nH]c(=O)c2[N+](=O)[O-])c1 | > 42 µM (inactive)
Cc1cccc(C)c1NC(=O)C1(N(Cc2ccco2)C(=O)CC2NC(=O)NC2=O)CCCCC1 (stereo unspecified) | > 42 µM (inactive)
CCOP(=O)(OCC)c1cc(CC)ccc1O | > 42 µM (inactive)
COc1ccc(C2CC3(CC(C)(C)NC(=S)N3)Oc3cc(O)cc(C)c32)cc1 (stereo unspecified) | > 42 µM (inactive)
COc1cc(NC(=O)c2ccccc2F)c(OC)cc1NC(=O)CN1CCCCC1 | > 42 µM (inactive)
COc1cc(/C=C(\NC(=O)c2ccccc2)C(=O)Nc2nccs2)ccc1OC(C)=O | > 42 µM (inactive)
CN(C)CC/C=C1/c2cc(F)ccc2Sc2ccc(Cl)cc21 | > 42 µM (inactive)
S=C(NCCc1ccccc1)Nc1ccccc1Cl | > 42 µM (inactive)
CCC1CCCCN1C(=O)CSc1nnc(CNC(=O)c2ccco2)o1 (stereo unspecified) | > 42 µM (inactive)
CCC(C)NCCOc1ccccc1C (stereo unspecified) | > 42 µM (inactive)
COc1ccccc1/C=C/C(=O)NC(=S)N1CCOCC1 | > 42 µM (inactive)
COc1cc2c(=O)n(-c3ccc(C)cc3)c(=O)n(CC(=O)c3ccc4c(c3)OCO4)c2cc1OC | > 42 µM (inactive)
CC(C)c1cccc(OCCCCN(C)C)c1 | > 42 µM (inactive)
O=C(NCC1CCN(Cc2ccccc2Cl)CC1)Nc1ccccc1F | > 42 µM (inactive)
O=C(CSc1cccc[n+]1[O-])N1CCc2ccccc21 | > 42 µM (inactive)
Cc1nc2nc[nH]n2c(=O)c1NS(=O)(=O)c1ccc([N+](=O)[O-])cc1 | > 42 µM (inactive)

Compound | AC50
COc1cccc(/C=C2/C(=O)NN(c3ccc(Br)cc3)C2=O)c1O | > 42 µM (inactive)
CCCn1c(N)cc(=O)n(CCC)c1=O | > 42 µM (inactive)
O=C(NCc1ccccc1Cl)C(=O)NCC1CCCN1S(=O)(=O)c1cccs1 (stereo unspecified) | > 42 µM (inactive)
O=C(CCC(F)(F)F)N1CCCC(CO)(CCc2ccccc2)C1 (stereo unspecified) | > 42 µM (inactive)
CC(=O)NC(CC(C)C)C(=O)NC(CO)C(=O)NC(CCC(=O)O)C(=O)NC(C)C(=O)NC(CC(C)C)C(N)=O (stereo unspecified) (Ac-LSEAL-NH2; configuration not given here) | > 42 µM (inactive)
COc1ccc(N2CCN(C3CCCN(Cc4cccc(OC)c4)C3)CC2)cc1 (stereo unspecified) | > 42 µM (inactive)
COc1ccc(CCNC(=O)CC2C(=O)NCCN2CC(C)(C)C)cc1 (stereo unspecified) | > 42 µM (inactive)
COC(=O)C1=C(C)N(Cc2ccccc2)C(=S)N[C@H]1c1cccc(F)c1 | > 42 µM (inactive)
O=C(NCc1ccco1)c1ccc(Br)c(S(=O)(=O)N2CCCCC2)c1 | > 42 µM (inactive)
CCc1c(C)c2ccc(OCC(=O)OC(C)C)c(C)c2oc1=O | > 42 µM (inactive)
Cc1ccc(C(C[N+](=O)[O-])c2c(C)[nH]n(-c3ccccc3)c2=O)cc1 (stereo unspecified) | 6.06 µM
CN(C)c1cccc(C(=O)Nc2cc(C(F)(F)F)ccc2-n2cnc3ccccc32)c1 | > 42 µM (inactive)
NC(=O)c1nsc(C(=O)N(Cc2ccc(F)cc2)C(C(=O)NC2CCCC2)c2ccco2)c1N (stereo unspecified) | > 42 µM (inactive)
O=C(Nc1cccnc1Cl)c1cc2ccccc2o1 | > 42 µM (inactive)
COc1cccc(Cn2cnc3c(NS(=O)(=O)c4cccc(Cl)c4Cl)c(C)c(C)cc32)c1 | > 110 µM (inactive)
CC(=O)c1cccc(NC(=O)CN(c2cccc(F)c2)S(C)(=O)=O)c1 | > 42 µM (inactive)
COCCCn1c2nc3ccccc3nc2c2c(=O)n(Cc3ccc(Cl)cc3)cnc21 | > 42 µM (inactive)
Cc1nc(-c2cccc(S(=O)(=O)N3CCOCC3)c2)cs1 | > 42 µM (inactive)
Cc1cc2c(cc1C)-c1nnc(-c3ccc4ccccc4n3)n1C(C)(C)C2 | > 42 µM (inactive)
Cc1nc(C)n(CC(=O)N2CCCC(C(=O)c3cccc4ccccc34)C2)n1 (stereo unspecified) | > 42 µM (inactive)
CCCCCC(=O)Nc1nnn(CCC)n1 | > 42 µM (inactive)
CN1C(=S)SC2CS(=O)(=O)CC21C (stereo unspecified) | > 21 µM (inactive)
O=C(O)CCC(NC(=O)c1ccc(Cl)cc1)C(=O)O (stereo unspecified) | > 42 µM (inactive)
CC(C)N=C(NS(=O)(=O)NC(=O)c1ccccc1)c1ccccc1 | > 42 µM (inactive)
CC(=O)OCC(OC(C)=O)C(OC(C)=O)C(OC(C)=O)C(=O)Nc1ccccc1 (stereo unspecified) | > 42 µM (inactive)
CC(C)(C)c1ccc(CN(Cc2ccccc2)C(c2ccccn2)c2nnnn2C(C)(C)C)cc1 (stereo unspecified) | > 42 µM (inactive)

Compound | AC50
COc1ccc(C2=NN(C(=S)Nc3ccccc3)C(c3ccccc3)C2)cc1 (stereo unspecified) | > 42 µM (inactive)
C[C@@]12C(=O)Nc3cc(Cl)ccc3C(=O)N1[C@H]1c3ccccc3OC[C@@H]1[C@@H]2c1ccccc1 | 1.98 µM
CCOC(=O)c1c(CN2CCCCC2)n(C)c2cc(Br)c(O)c(CN(C)C)c12 | > 42 µM (inactive)
COc1cccc(/C=N/NC(=O)CNC(=O)c2ccco2)c1O | > 42 µM (inactive)
CCOC(=O)CNC(=O)c1cccnc1 | > 42 µM (inactive)
Cc1cc(C)n(-c2ccc(C(=O)C(C#N)c3nc4ccccc4n3C)cc2)n1 (stereo unspecified) | > 42 µM (inactive)
Cc1ccc(O)c(C(=O)CC(=O)c2cccc(F)c2)c1 | 20.7 µM
COc1ccc(NC(=O)c2ccc(-c3csc(C)n3)cc2)cc1 | > 42 µM (inactive)
CS(=O)(=O)c1ccc(Cl)c(NC(=O)c2ccc3ccccc3c2)c1 | > 42 µM (inactive)
CC(C)c1onc(C(=O)N(C)Cc2ccccc2)c1[N+](=O)[O-] | > 42 µM (inactive)
Cc1ccc2nc(NC(=O)CNS(=O)(=O)c3ccc(Br)s3)sc2c1 | > 42 µM (inactive)
S=c1[nH]nc(-c2ccco2)n1-c1ccc(Br)cc1 | > 42 µM (inactive)
Cc1ccc(C(C(=O)NC2CCCCC2)N(CCC(C)C)C(=O)CNC(=O)c2ccco2)o1 (stereo unspecified) | > 42 µM (inactive)
Clc1cnc(Oc2ccc(Oc3ncc(Cl)cc3Cl)cc2)c(Cl)c1 | > 42 µM (inactive)
CN(C)c1ccc(C(CNS(=O)(=O)c2ccc([N+](=O)[O-])cc2)N2CCOCC2)cc1 (stereo unspecified) | > 42 µM (inactive)
Cc1ccc(S(=O)(=O)N2CCN(C(=O)CSc3nc(N)cc(=O)[nH]3)CC2)c(C)c1 | > 42 µM (inactive)
O=S(=O)(NCCN1CCCC1)c1cccc2cccnc12 | > 42 µM (inactive)
O=C(c1cc(N2C(=O)C3C4CCC(C4)C3C2=O)ccc1Cl)N1CCN(c2ccccc2)CC1 (stereo unspecified) | > 42 µM (inactive)
CCc1cc(/C(Cc2ccccn2)=N\O)c(O)cc1O | > 42 µM (inactive)
Cc1cc2ncc(C(=O)N=CN(C)C)cn2n1 | > 42 µM (inactive)
c1ccc(C(c2ccccc2)N2CCN(C(c3ccccn3)c3nnnn3C3CCCC3)CC2)cc1 (stereo unspecified) | > 42 µM (inactive)
CCn1c(=O)n(CC)c2cc(NC(=O)c3ccccc3Cl)ccc21 | > 42 µM (inactive)
c1ccc(-c2cc3ccccc3cn2)cc1 | 35 µM
